Source: ChEMBL document CHEMBL1909046, “DrugMatrix in vitro pharmacology data”

Columns and labels:
[1] = target: T1, C-C chemokine receptor type 4 (Homo sapiens, UniProt P51679); assay type: cell membranes, Membrane; details: chem-1; note: in other assays of this panel Not Active means under 50% inhibition at 10 µM
T1 sequence (P51679 whole entry): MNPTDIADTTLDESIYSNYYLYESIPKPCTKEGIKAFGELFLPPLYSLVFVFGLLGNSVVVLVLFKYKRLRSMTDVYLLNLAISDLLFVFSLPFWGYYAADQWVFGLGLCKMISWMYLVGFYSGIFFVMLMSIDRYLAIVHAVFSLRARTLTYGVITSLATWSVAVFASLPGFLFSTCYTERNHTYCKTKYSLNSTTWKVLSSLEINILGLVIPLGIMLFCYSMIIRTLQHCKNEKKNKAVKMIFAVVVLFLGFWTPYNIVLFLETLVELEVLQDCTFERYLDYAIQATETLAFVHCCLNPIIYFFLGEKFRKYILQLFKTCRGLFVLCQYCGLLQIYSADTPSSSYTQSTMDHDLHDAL

[2] = target: Tyrosine-protein kinase Fyn (Homo sapiens, UniProt P06241); assay: biochemical; assay type: cell-based, Insect cells; details: insect cells;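 note: enzymatic inhibition of Fyn kinase activity measured with Poly(Glu:Tyr) as the phosphorylation substrate; in other assays of this panel Not Active means under 50% inhibition at 10 µM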
Tyrosine-protein kinase Fyn, sequence (P06241 whole entry): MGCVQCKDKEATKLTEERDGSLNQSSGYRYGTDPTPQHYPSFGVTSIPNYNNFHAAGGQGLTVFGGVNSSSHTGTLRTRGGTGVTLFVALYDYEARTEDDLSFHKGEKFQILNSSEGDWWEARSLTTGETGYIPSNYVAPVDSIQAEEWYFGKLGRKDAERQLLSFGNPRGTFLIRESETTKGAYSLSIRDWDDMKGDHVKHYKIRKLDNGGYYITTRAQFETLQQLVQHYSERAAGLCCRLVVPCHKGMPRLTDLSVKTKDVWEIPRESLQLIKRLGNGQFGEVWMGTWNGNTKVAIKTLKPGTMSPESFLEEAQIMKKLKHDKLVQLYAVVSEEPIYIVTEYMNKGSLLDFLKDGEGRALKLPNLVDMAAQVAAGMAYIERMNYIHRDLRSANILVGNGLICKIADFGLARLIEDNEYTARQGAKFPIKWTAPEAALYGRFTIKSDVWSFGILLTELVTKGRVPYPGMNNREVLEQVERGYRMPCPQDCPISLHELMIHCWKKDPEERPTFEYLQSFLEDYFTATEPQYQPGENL

D(1A) dopamine receptor = D(1A) dopamine receptor (Homo sapiens, UniProt P21728); assay: DRUGMATRIX: Dopamine D1 radioligand binding (ligand: [3H] SCH-23390); assay type: cell membranes, CHO, Membrane; details: cho; Not Active = under 50% inhibition at 10 µM
D(1A) dopamine receptor, sequence (P21728 whole entry): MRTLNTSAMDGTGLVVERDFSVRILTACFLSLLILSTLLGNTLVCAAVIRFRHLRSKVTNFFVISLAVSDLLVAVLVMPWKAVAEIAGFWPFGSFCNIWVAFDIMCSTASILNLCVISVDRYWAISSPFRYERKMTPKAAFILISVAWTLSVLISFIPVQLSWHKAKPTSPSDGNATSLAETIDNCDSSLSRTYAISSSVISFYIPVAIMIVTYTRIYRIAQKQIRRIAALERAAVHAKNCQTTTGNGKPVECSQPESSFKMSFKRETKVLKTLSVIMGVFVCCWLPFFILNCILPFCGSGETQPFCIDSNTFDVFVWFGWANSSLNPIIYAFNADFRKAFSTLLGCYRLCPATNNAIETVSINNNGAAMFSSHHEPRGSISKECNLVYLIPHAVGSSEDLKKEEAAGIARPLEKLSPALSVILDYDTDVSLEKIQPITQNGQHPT

[3] = DRUGMATRIX: Glutamate, AMPA radioligand binding (ligand: [3H] AMPA); assay type: cell membranes, Rattus norvegicus, Wistar, Cerebral cortex, Membrane; details: Not Active = under 50% inhibition at 10 µM
[4] = DRUGMATRIX: beta-Lactamase enzyme inhibition (substrate: Nitrocefin); design: species or system Bacillus cereus; details: Not Active = under 50% inhibition at 10 µM
Cytochrome P450 1A2 = target: T2, Cytochrome P450 1A2 (Homo sapiens, UniProt P05177); details: bti-tn-5b1-4; note: in other assays of this panel Not Active means under 50% inhibition at 10 µM
T2 sequence (P05177 whole entry): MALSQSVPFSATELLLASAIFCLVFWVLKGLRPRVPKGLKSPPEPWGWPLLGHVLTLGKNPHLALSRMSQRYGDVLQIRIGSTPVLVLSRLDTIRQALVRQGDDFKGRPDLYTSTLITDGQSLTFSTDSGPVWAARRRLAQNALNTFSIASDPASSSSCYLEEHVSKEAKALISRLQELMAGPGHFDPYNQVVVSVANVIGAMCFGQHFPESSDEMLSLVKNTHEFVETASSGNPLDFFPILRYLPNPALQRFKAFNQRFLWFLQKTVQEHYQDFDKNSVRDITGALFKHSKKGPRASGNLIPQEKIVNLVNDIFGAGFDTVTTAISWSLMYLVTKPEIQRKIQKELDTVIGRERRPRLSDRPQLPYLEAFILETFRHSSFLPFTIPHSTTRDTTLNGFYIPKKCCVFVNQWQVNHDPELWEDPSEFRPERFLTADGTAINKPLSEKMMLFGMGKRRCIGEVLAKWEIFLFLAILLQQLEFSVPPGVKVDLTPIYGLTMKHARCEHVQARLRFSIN

D(4) dopamine receptor = target: T3, D(4) dopamine receptor (Homo sapiens, UniProt P21917); assay: DRUGMATRIX: Dopamine D4.2 radioligand binding (ligand: [3H] Spiperone); assay type: cell membranes, CHO-K1, Membrane; details: cho-k1; Not Active = under 50% inhibition at 10 µM
T3 sequence (P21917 whole entry): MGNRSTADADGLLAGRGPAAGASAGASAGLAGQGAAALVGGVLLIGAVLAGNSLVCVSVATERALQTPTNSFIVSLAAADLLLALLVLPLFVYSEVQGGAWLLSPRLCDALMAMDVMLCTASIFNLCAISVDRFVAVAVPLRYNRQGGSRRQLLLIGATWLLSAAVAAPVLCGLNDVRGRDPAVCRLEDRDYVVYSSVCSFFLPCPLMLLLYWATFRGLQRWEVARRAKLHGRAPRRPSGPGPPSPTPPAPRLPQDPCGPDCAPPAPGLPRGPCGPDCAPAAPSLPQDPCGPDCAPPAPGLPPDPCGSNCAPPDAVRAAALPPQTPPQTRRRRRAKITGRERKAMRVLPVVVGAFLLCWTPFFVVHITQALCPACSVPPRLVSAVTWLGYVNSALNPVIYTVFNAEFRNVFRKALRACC

Adenosine receptor A2a = Adenosine receptor A2a (Homo sapiens, UniProt P29274); assay: DRUGMATRIX: Adenosine A2A radioligand binding (ligand: […]); assay type: cell membranes, HEK293, Membrane; details: hek293; Not Active = under 50% inhibition at 10 µM
Adenosine receptor A2a, sequence (P29274 whole entry): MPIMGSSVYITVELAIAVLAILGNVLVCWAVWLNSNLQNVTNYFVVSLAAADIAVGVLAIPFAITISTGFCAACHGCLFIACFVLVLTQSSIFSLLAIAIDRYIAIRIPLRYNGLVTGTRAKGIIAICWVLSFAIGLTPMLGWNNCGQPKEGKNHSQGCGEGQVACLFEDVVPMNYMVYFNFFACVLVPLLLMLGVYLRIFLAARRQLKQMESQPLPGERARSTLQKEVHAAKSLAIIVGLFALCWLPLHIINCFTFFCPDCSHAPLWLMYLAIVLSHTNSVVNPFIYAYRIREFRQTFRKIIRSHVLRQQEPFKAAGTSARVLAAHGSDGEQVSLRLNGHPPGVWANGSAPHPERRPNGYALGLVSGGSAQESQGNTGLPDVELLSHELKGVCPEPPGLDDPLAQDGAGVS

COc1cc2nc(N3CCN(C(=O)C4CCCO4)CC3)nc(N)c2cc1OC (centres undefined) [TERAZOSIN]
Not Active: IC50 [1] | IC50 [2] | IC50 (D(1A) dopamine receptor) | IC50 [3] | Ki [3] | IC50 [4] | Ki [4] | IC50 (Cytochrome P450 1A2) | Ki (Cytochrome P450 1A2) | IC50 (D(4) dopamine receptor) | IC50 (Adenosine receptor A2a)

CN(C/C=C/C#CC(C)(C)C)Cc1cccc2ccccc12 [TERBINAFINE]
Not Active: IC50 [1] | IC50 [2] | IC50 (D(1A) dopamine receptor) | IC50 [3] | Ki [3] | IC50 [4] | Ki [4] | IC50 (Cytochrome P450 1A2) | Ki (Cytochrome P450 1A2) | IC50 (D(4) dopamine receptor) | IC50 (Adenosine receptor A2a)

CS(=O)(=O)c1ccc([C@@H](O)[C@@H](CO)NC(=O)C(Cl)Cl)cc1 [THIAMPHENICOL]
Not Active: IC50 [1] | IC50 [2] | IC50 (D(1A) dopamine receptor) | IC50 [3] | Ki [3] | IC50 [4] | Ki [4] | IC50 (Cytochrome P450 1A2) | Ki (Cytochrome P450 1A2) | IC50 (D(4) dopamine receptor) | IC50 (Adenosine receptor A2a)

CCN(CC)CCNC(=O)c1cc(S(C)(=O)=O)ccc1OC [TIAPRIDE]
Not Active: IC50 [1] | IC50 [2] | IC50 (D(1A) dopamine receptor) | IC50 [3] | Ki [3] | IC50 [4] | Ki [4] | IC50 (Cytochrome P450 1A2) | Ki (Cytochrome P450 1A2) | IC50 (D(4) dopamine receptor) | IC50 (Adenosine receptor A2a)

Clc1ccccc1CN1CCc2sccc2C1 [TICLOPIDINE]
Not Active: IC50 [1] | IC50 [2] | IC50 (D(1A) dopamine receptor) | IC50 [3] | Ki [3] | IC50 [4] | Ki [4] | IC50 (Cytochrome P450 1A2) | Ki (Cytochrome P450 1A2) | IC50 (D(4) dopamine receptor) | IC50 (Adenosine receptor A2a)

NC1CCN(c2nc3c(cc2F)c(=O)c(C(=O)O)cn3-c2ccc(F)cc2F)C1 (centres undefined) [TOSUFLOXACIN]
Not Active: IC50 [1] | IC50 [2] | IC50 (D(1A) dopamine receptor) | IC50 [3] | Ki [3] | IC50 [4] | Ki [4] | IC50 (Cytochrome P450 1A2) | Ki (Cytochrome P450 1A2) | IC50 (D(4) dopamine receptor) | IC50 (Adenosine receptor A2a)

CC(c1cc2ccccc2s1)N(O)C(N)=O (centres undefined) [ZILEUTON]
Not Active: IC50 [1] | IC50 [2] | IC50 (D(1A) dopamine receptor) | IC50 [3] | Ki [3] | IC50 [4] | Ki [4] | IC50 (Cytochrome P450 1A2) | Ki (Cytochrome P450 1A2) | IC50 (D(4) dopamine receptor) | IC50 (Adenosine receptor A2a)

MANGANESE CHLORIDE ANHYDROUS
Not Active: IC50 [1] | Ki [1] | IC50 [2] | Ki [2] | IC50 (D(1A) dopamine receptor) | Ki (D(1A) dopamine receptor) | IC50 [3] | Ki [3] | IC50 [4] | Ki [4] | IC50 (Cytochrome P450 1A2) | Ki (Cytochrome P450 1A2) | IC50 (D(4) dopamine receptor) | Ki (D(4) dopamine receptor) | IC50 (Adenosine receptor A2a) | Ki (Adenosine receptor A2a)

SODIUM ORTHOVANAD
Not Active: IC50 [1] | Ki [1] | IC50 [2] | Ki [2] | IC50 (D(1A) dopamine receptor) | Ki (D(1A) dopamine receptor) | IC50 [3] | Ki [3] | IC50 [4] | Ki [4] | IC50 (Cytochrome P450 1A2) | Ki (Cytochrome P450 1A2) | IC50 (D(4) dopamine receptor) | Ki (D(4) dopamine receptor) | IC50 (Adenosine receptor A2a) | Ki (Adenosine receptor A2a)
